Test results reported in patent publication US10227323B2, “Glucosylceramide synthase inhibitors for the treatment of diseases” (BIOMARIN PHARMACEUTICAL INC., priority 2013, dated 2019).

Target: T1, GCS (Canis lupus familiaris, UniProt A0A8I3MXG6)
T1 sequence (A0A8I3MXG6 1-394): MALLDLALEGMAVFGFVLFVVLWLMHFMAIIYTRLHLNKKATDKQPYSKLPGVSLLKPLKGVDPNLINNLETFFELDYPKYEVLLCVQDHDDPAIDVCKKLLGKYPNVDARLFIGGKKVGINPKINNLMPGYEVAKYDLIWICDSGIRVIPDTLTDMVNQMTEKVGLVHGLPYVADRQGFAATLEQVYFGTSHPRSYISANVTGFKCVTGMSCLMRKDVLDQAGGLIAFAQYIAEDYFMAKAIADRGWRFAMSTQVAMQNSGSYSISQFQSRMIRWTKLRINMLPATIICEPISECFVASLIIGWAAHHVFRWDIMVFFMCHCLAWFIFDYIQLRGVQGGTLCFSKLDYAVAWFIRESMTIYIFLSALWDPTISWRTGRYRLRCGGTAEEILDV
Experiment: Assay 1: GCS Enzymatic Assay (MDCK cell lysate, C6-NBD-Ceramide, LC/MS)
Type: biochemical, canine
Details: Table 2; for IC50: data without asterisk, read-out: IC50 (nM) generated from Assay 1; for % inhibition generated from Assay 1: data marked by *
In short: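 LC/MS/MS measurement of glucosylceramide and NBD-ceramide after a 1 h, 37 °C reaction with 100 μM UDP-glucose and 10 μM C6-NBD-ceramide gave IC50s or percent inhibition.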

Row | IC50 | SMILES | % inhibition generated from Assay 1
1 | < 50 nM | O=C(N[C@H](CN1CCCC1)[C@H](O)c1cc(F)c2c(c1)OCCO2)C(=O)c1cc2cc(Cl)ccc2o1 [Compound 95, 2-(5-chlorobenzofuran-2-yl)-N-((1R,2R)-1-(8-fluoro-2,3-dihydrobenzo[b][1,4]dioxin-6-yl)-1-hydroxy-3-(pyrrolidin-1-yl)propan-2-yl)-2-oxoacetamide] | 
2 |  | CC1CN(C[C@@H](NC(=O)C(F)(F)CCc2ccc3cc(F)ccc3c2)[C@H](O)c2ccc3c(c2)OCCO3)C1 [Compound 96, N-((1R,2R)-1-(2,3-dihydrobenzo[b][1,4]dioxin-6-yl)-1-hydroxy-3-(3-methylazetidin-1-yl)propan-2-yl)-2,2-difluoro-4-(6-fluoronaphthalen-2-yl)butanamide] | A* (the compound had a % inhibition of a percent inhibition of greater than or equal to about 50%)
3 |  | CC(C)Oc1ccc([C@@H](O)[C@@H](CN2CCCC2)NC(=O)C(F)(F)CCc2ccc3cc(F)ccc3c2)cn1 [Compound 97, 2,2-difluoro-4-(6-fluoronaphthalen-2-yl)-N-((1R,2R)-1-hydroxy-1-(6-isopropoxypyridin-3-yl)-3-(pyrrolidin-1-yl)propan-2-yl)butanamide] | A* (the compound had a % inhibition of a percent inhibition of greater than or equal to about 50%)
4 | < 50 nM | O=C(N[C@H](CN1CCC1)[C@H](O)c1cc(F)c2c(c1)OCCO2)C(=NO)c1cc2cc(Cl)ccc2o1 [Compound 98, N-((1R,2R)-3-(azetidin-1-yl)-1-(8-fluoro-2,3-dihydrobenzo[b][1,4]dioxin-6-yl)-1-hydroxypropan-2-yl)-2-(5-chlorobenzofuran-2-yl)-2-(hydroxyimino)acetamide] | 
5 | < 50 nM | O=C(N[C@H](CN1CCCC1)[C@H](O)c1ccc(OC2CC2)nc1)C(F)(F)c1cc2cc(Cl)ccc2o1 [Compound 99, 2-(5-chlorobenzofuran-2-yl)-N-((1R,2R)-1-(6-cyclopropoxypyridin-3-yl)-1-hydroxy-3-(pyrrolidin-1-yl)propan-2-yl)-2,2-difluoroacetamide] | 
6 |  | CC1CN(C[C@@H](NC(=O)C(=O)c2cc3cc(Cl)ccc3o2)[C@H](O)c2ccc3c(c2)OCCO3)C1 [Compound 100, 2-(5-chlorobenzofuran-2-yl)-N-((1R,2R)-1-(2,3-dihydrobenzo[b][1,4]dioxin-6-yl)-1-hydroxy-3-(3-methylazetidin-1-yl)propan-2-yl)-2-oxoacetamide] | B* (the compound had a % inhibition of greater than or equal to about 3% but less than about 50%)
7 | < 50 nM | O=C(N[C@H](CN1CCCC1)[C@H](O)c1ccc(OC2CC2)nc1)C(F)(F)CCc1ccc2cc(F)ccc2c1 [Compound 101, N-((1R,2R)-1-(6-cyclopropoxypyridin-3-yl)-1-hydroxy-3-(pyrrolidin-1-yl)propan-2-yl)-2,2-difluoro-4-(6-fluoronaphthalen-2-yl)butanamide] | 
8 | < 50 nM | CC1CN(C[C@@H](NC(=O)/C(=N/O)c2cc3cc(Cl)ccc3o2)[C@H](O)c2ccc3c(c2)OCCO3)C1 [Compound 102, (E)-2-(5-chlorobenzofuran-2-yl)-N-((1R,2R)-1-(2,3-dihydrobenzo[b][1,4]dioxin-6-yl)-1-hydroxy-3-(3-methylazetidin-1-yl)propan-2-yl)-2-(hydroxyimino)acetamide] | 
9 | < 50 nM | O=C(N[C@H](CN1CCCC1)[C@H](O)c1cc(F)c2c(c1)OCCO2)/C(=N/O)c1cc2cc(Cl)ccc2o1 [Compound 104, (E)-2-(5-chlorobenzofuran-2-yl)-N-((1R,2R)-1-(8-fluoro-2,3-dihydrobenzo[b][1,4]dioxin-6-yl)-1-hydroxy-3-(pyrrolidin-1-yl)propan-2-yl)-2-(hydroxyimino)acetamide] | 
10 | < 50 nM | O=C(N[C@H](CN1CCCC1)[C@H](O)c1ccc(OC2CCOCC2)c(Cl)c1)C(F)(F)c1cc2cc(Cl)ccc2o1 [Compound 105, N-((1R,2R)-1-(3-chloro-4-((tetrahydro-2H-pyran-4-yl)oxy)phenyl)-1-hydroxy-3-(pyrrolidin-1-yl)propan-2-yl)-2-(5-chlorobenzofuran-2-yl)-2,2-difluoroacetamide] | 
11 | < 50 nM | O=C(N[C@H](CN1CCCC1)[C@H](O)c1ccc2c(c1)OCCO2)/C(CCc1ccc2cc(F)ccc2c1)=N/O [Compound 106, (E)-N-((1R,2R)-1-(2,3-dihydrobenzo[b][1,4]dioxin-6-yl)-1-hydroxy-3-(pyrrolidin-1-yl)propan-2-yl)-4-(6-fluoronaphthalen-2-yl)-2-(hydroxyimino)butanamide] | 
12 | < 50 nM | CC(C)Oc1ccc([C@@H](O)[C@@H](CN2CCCC2)NC(=O)C(F)(F)CCc2ccc3ccccc3c2)cn1 [Compound 107, 2,2-difluoro-N-((1R,2R)-1-hydroxy-1-(6-isopropoxypyridin-3-yl)-3-(pyrrolidin-1-yl)propan-2-yl)-4-(naphthalen-2-yl)butanamide] | 
13 | 50 to 5000 nM | O=C(N[C@H](CN1CCCC1)[C@H](O)c1ccc(OCC(F)(F)F)nc1)C(F)(F)CCc1ccc2ccccc2c1 [Compound 108, 2,2-difluoro-N-((1R,2R)-1-hydroxy-3-(pyrrolidin-1-yl)-1-(6-(2,2,2-trifluoroethoxy)pyridin-3-yl)propan-2-yl)-4-(naphthalen-2-yl)butanamide] | 
14 | < 50 nM | O=C(N[C@H](CN1CCCC1)[C@H](O)c1cc(F)c2c(c1)OCCO2)C(F)(F)CCc1ccc2ccccc2c1 [Compound 109, 2,2-difluoro-N-((1R,2R)-1-(8-fluoro-2,3-dihydrobenzo[b][1,4]dioxin-6-yl)-1-hydroxy-3-(pyrrolidin-1-yl)propan-2-yl)-4-(naphthalen-2-yl)butanamide] | 
15 | < 50 nM | O=C(N[C@H](CN1CCCC1)[C@H](O)c1ccc(OC2CCOCC2)c(Cl)c1)C(F)(F)CCc1ccc2ccccc2c1 [Compound 110, N-((1R,2R)-1-(3-chloro-4-((tetrahydro-2H-pyran-4-yl)oxy)phenyl)-1-hydroxy-3-(pyrrolidin-1-yl)propan-2-yl)-2,2-difluoro-4-(naphthalen-2-yl)butanamide] | 
16 | < 50 nM | O=C(CCc1ccc2cc(F)ccc2c1)C(=O)N[C@H](CN1CCCC1)[C@H](O)c1cc(F)c2c(c1)OCCO2 [Compound 111, N-((1R,2R)-1-(8-fluoro-2,3-dihydrobenzo[b][1,4]dioxin-6-yl)-1-hydroxy-3-(pyrrolidin-1-yl)propan-2-yl)-4-(6-fluoronaphthalen-2-yl)-2-oxobutanamide] | 
17 | < 50 nM | O=C(N[C@H](CN1CCCC1)[C@H](O)c1ccc(OC2CC2)c(Cl)c1)/C(CCc1ccc2cc(F)ccc2c1)=N/O [Compound 112, (E)-N-((1R,2R)-1-(3-chloro-4-cyclopropoxyphenyl)-1-hydroxy-3-(pyrrolidin-1-yl)propan-2-yl)-4-(6-fluoronaphthalen-2-yl)-2-(hydroxyimino)butanamide] | 
18 |  | CC(C)Oc1cc([C@@H](O)[C@@H](CN2CCCC2)NC(=O)C(F)(F)CCc2ccc3cc(F)ccc3c2)ccn1 [Compound 114, 2,2-difluoro-4-(6-fluoronaphthalen-2-yl)-N-((1R,2R)-1-hydroxy-1-(2-isopropoxypyridin-4-yl)-3-(pyrrolidin-1-yl)propan-2-yl)butanamide] | A* (the compound had a % inhibition of a percent inhibition of greater than or equal to about 50%)
19 | < 50 nM | O=C(N[C@H](CN1CCCC1)[C@H](O)c1cc(F)c2c(c1)OCCO2)/C(CCc1ccc2cc(F)ccc2c1)=N/O [Compound 115, (E)-N-((1R,2R)-1-(8-fluoro-2,3-dihydrobenzo[b][1,4]dioxin-6-yl)-1-hydroxy-3-(pyrrolidin-1-yl)propan-2-yl)-4-(6-fluoronaphthalen-2-yl)-2-(hydroxyimino)butanamide] | 
20 | < 50 nM | O=C(N[C@H](CN1CCCC1)[C@H](O)c1ccc(OC2CCOCC2)c(Cl)c1)C(F)(F)C1Cc2ccc(Cl)cc2C1 (stereo partly drawn) [Compound 116, 2-(5-chloro-2,3-dihydro-1H-inden-2-yl)-N-((1R,2R)-1-(3-chloro-4-((tetrahydro-2H-pyran-4-yl)oxy)phenyl)-1-hydroxy-3-(pyrrolidin-1-yl)propan-2-yl)-2,2-difluoroacetamide] | 
21 | 50 to 5000 nM | O=C(N[C@H](CN1CCC1)[C@H](O)c1cc(F)c2c(c1)OCCO2)/C(CCc1ccc2cc(F)ccc2c1)=N/O [Compound 118, (E)-N-((1R,2R)-3-(azetidin-1-yl)-1-(8-fluoro-2,3-dihydrobenzo[b][1,4]dioxin-6-yl)-1-hydroxypropan-2-yl)-4-(6-fluoronaphthalen-2-yl)-2-(hydroxyimino)butanamide] | 
22 |  | CC1(C)CCc2cc([C@@H](O)[C@@H](CN3CCCC3)NC(=O)C(F)(F)c3cc4cc(Cl)ccc4o3)ccc2O1 [Compound 119, 2-(5-chlorobenzofuran-2-yl)-N-((1R,2R)-1-(2,2-dimethylchroman-6-yl)-1-hydroxy-3-(pyrrolidin-1-yl)propan-2-yl)-2,2-difluoroacetamide] | A* (the compound had a % inhibition of a percent inhibition of greater than or equal to about 50%)
23 |  | O=C(N[C@H](CN1CCCC1)[C@H](O)c1ccc(OC2CC2)nc1)C(F)(F)CCc1ccc2ccccc2c1 [Compound 120, N-((1R,2R)-1-(6-cyclopropoxypyridin-3-yl)-1-hydroxy-3-(pyrrolidin-1-yl)propan-2-yl)-2,2-difluoro-4-(naphthalen-2-yl)butanamide] | A* (the compound had a % inhibition of a percent inhibition of greater than or equal to about 50%)
